Results as given in patent US20250144094A1 (Erasca, Inc., priority 2021, published 2025).

Molecular target: Recombinant human ULK1 (1-649) (Homo sapiens (Human), UniProt O75385)
Assay: ULK1 ADP Glo kinase activity assay, new method (ULKtide peptide substrate)
Conditions: 25° C., 40 minutes, read-out: ULK1 biochemical IC50
Procedure, shortened: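 GST-tagged human ULK1 (1-649) from Sf9 cells was reacted with ULKtide peptide and ATP for 40 min at 25 °C across 12-point compound dilutions from 10 μM. ADP formed was quantified by ADP-Glo luminescence; IC50 came from four-parameter fits relative to DMSO controls.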

Recombinant human ULK1 (1-649), sequence (O75385 1-649): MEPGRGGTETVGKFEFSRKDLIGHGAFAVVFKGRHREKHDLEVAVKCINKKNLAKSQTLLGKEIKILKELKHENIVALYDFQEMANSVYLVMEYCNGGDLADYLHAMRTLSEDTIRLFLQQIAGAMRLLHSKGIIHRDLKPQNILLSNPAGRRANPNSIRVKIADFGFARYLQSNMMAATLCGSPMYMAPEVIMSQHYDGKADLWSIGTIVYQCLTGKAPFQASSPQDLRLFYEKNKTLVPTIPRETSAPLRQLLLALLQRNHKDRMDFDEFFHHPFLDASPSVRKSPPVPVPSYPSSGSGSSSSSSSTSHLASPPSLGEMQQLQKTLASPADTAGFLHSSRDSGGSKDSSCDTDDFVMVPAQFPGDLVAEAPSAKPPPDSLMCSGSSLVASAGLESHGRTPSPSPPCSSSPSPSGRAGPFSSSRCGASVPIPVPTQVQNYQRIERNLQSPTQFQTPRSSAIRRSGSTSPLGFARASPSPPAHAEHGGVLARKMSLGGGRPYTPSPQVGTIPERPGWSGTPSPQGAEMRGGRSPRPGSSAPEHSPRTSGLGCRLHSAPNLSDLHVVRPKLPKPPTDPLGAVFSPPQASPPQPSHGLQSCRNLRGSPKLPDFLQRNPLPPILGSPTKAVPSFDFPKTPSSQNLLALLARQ

**Q.** How did the IC50 turn out when O=C1c2sc(-c3nc(Nc4cc5c(nc4C4CC4)CNCC5)ncc3C(F)(F)F)cc2S(=O)(=O)CCN1C1CC1 [Example 303, 4-cyclopropyl-7-(2-((2-cyclopropyl-5,6,7,8-tetrahydro-1,7-naphthyridin-3-yl)amino)-5-(trifluoromethyl)pyrimidin-4-yl)-3,4-dihydrothieno[2,3-f][1,4]thiazepin-5(2H)-one 1,1-dioxide] was run?
**A.** Its IC50 is no more than 5 nM.

**Q.** How did the IC50 turn out when O=C1c2sc(-c3nc(Nc4cc5c(nc4C4CC4)CNCC5)ncc3C(F)(F)F)cc2S(=O)(=O)CCN1C1COC1 [Example 304, 7-(2-((2-cyclopropyl-5,6,7,8-tetrahydro-1,7-naphthyridin-3-yl)amino)-5-(trifluoromethyl)pyrimidin-4-yl)-4-(oxetan-3-yl)-3,4-dihydrothieno[2,3-f][1,4]thiazepin-5(2H)-one 1,1-dioxide] was run?
**A.** The IC50 was no more than 5 nM.

**Q.** For O=C1c2sc(-c3nc(Nc4ccc(N5C[C@@H]6C[C@H]5CN6)cc4C4CC4)ncc3C(F)(F)F)cc2S(=O)(=O)CCN1C1CC1 [Example 305, 7-(2-((4-((1S,4S)-2,5-diazabicyclo[2.2.1]heptan-2-yl)-2-cyclopropylphenyl)amino)-5-(trifluoromethyl)pyrimidin-4-yl)-4-cyclopropyl-3,4-dihydrothieno[2,3-f][1,4]thiazepin-5(2H)-one 1,1-dioxide], which IC50 is on record?
**A.** The IC50 was no more than 5 nM.

**Q.** CN1C[C@@H]2C[C@H]1CN2c1ccc(Nc2ncc(C(F)(F)F)c(-c3cc4c(s3)C(=O)N(C3CC3)CCS4(=O)=O)n2)c(C2CC2)c1 [Example 306, 4-Cyclopropyl-7-(2-((2-cyclopropyl-4-((1S,4S)-5-methyl-2,5-diazabicyclo[2.2.1]heptan-2-yl)phenyl)amino)-5-(trifluoromethyl)pyrimidin-4-yl)-3,4-dihydrothieno[2,3-f][1,4]thiazepin-5(2H)-one 1,1-dioxide] was tested. Which IC50 did it give?
**A.** The IC50 was no more than 5 nM.

**Q.** O=C1c2sc(-c3nc(Nc4ccc(N5C[C@H]6CC[C@@H](C5)N6)cc4C4CC4)ncc3C(F)(F)F)cc2S(=O)(=O)CCN1C1CC1 [Example 307, 7-(2-((4-((1R,5S)-3,8-diazabicyclo[3.2.1]octan-3-yl)-2-cyclopropylphenyl)amino)-5-(trifluoromethyl)pyrimidin-4-yl)-4-cyclopropyl-3,4-dihydrothieno[2,3-f][1,4]thiazepin-5(2H)-one 1,1-dioxide] was tested. Which IC50 did it give?
**A.** Its IC50 is no more than 5 nM.

**Q.** C[C@@H]1CN(c2ccc(Nc3ncc(C(F)(F)F)c(-c4cc5c(s4)C(=O)N(C4CC4)CCS5(=O)=O)n3)c(C3CC3)c2)CCN1 [Example 308, (R)-4-cyclopropyl-7-(2-((2-cyclopropyl-4-(3-methylpiperazin-1-yl)phenyl)amino)-5-(trifluoromethyl)pyrimidin-4-yl)-3,4-dihydrothieno[2,3-f][1,4]thiazepin-5(2H)-one 1,1-dioxide] was tested. Which IC50 did it give?
**A.** Its IC50 is no more than 5 nM.

**Q.** C[C@@H]1CN(c2ccc(Nc3ncc(C(F)(F)F)c(-c4cc5c(s4)C(=O)N(C4CC4)CCS5(=O)=O)n3)c(C3CC3)c2)CCN1C [Example 309, (R)-4-cyclopropyl-7-(2-((2-cyclopropyl-4-(3,4-dimethylpiperazin-1-yl)phenyl)amino)-5-(trifluoromethyl)pyrimidin-4-yl)-3,4-dihydrothieno[2,3-f][1,4]thiazepin-5(2H)-one 1,1-dioxide] was tested. Which IC50 did it give?
**A.** The IC50 was no more than 5 nM.

**Q.** With O=C1c2sc(-c3nc(Nc4ccc(N5C[C@@H]6C[C@H]5CN6)cc4C4CC4)ncc3C(F)(F)F)cc2S(=O)(=O)CCN1C1COC1 [Example 310, 7-(2-((4-((1S,4S)-2,5-diazabicyclo[2.2.1]heptan-2-yl)-2-cyclopropylphenyl)amino)-5-(trifluoromethyl)pyrimidin-4-yl)-4-(oxetan-3-yl)-3,4-dihydrothieno[2,3-f][1,4]thiazepin-5(2H)-one 1,1-dioxide] as the molecule, how does the IC50 read?
**A.** Its IC50 is no more than 5 nM.

**Q.** With O=S1(=O)CCNS(=O)(=O)c2sc(-c3nc(Nc4cc5c(cc4C4CC4)CNCC5)ncc3C(F)(F)F)cc21 [Example 311, 7-(2-((7-cyclopropyl-1,2,3,4-tetrahydroisoquinolin-6-yl)amino)-5-(trifluoromethyl)pyrimidin-4-yl)-3,4-dihydro-2H-thieno[3,2-f][1,5,2]dithiazepine 1,1,5,5-tetraoxide] as the molecule, how does the IC50 read?
**A.** The IC50 was no more than 5 nM.

**Q.** Which IC50 does the source give for O=C1c2sc(-c3nc(Nc4cc5c(cc4C4CC4)CN(CCOC(F)(F)F)CC5)ncc3C(F)(F)F)cc2S(=O)(=O)CCN1C1COC1 [Example 312, 7-(2-((7-cyclopropyl-2-(2-(trifluoromethoxy)ethyl)-1,2,3,4-tetrahydroisoquinolin-6-yl)amino)-5-(trifluoromethyl)pyrimidin-4-yl)-4-(oxetan-3-yl)-3,4-dihydrothieno[2,3-f][1,4]thiazepin-5(2H)-one 1,1-dioxide] here?
**A.** Its IC50 is 5 to 10 nM.

**Q.** CN1[C@@H]2CC[C@H]1CN(c1ccc(Nc3ncc(C(F)(F)F)c(-c4cc5c(s4)C(=O)N(C4CC4)CCS5(=O)=O)n3)c(C3CC3)c1)C2 [Example 313, 4-cyclopropyl-7-(2-((2-cyclopropyl-4-((1R,5S)-8-methyl-3,8-diazabicyclo[3.2.1]octan-3-yl)phenyl)amino)-5-(trifluoromethyl)pyrimidin-4-yl)-3,4-dihydrothieno[2,3-f][1,4]thiazepin-5(2H)-one 1,1-dioxide] was tested. Which IC50 did it give?
**A.** Its IC50 is no more than 5 nM.

**Q.** With O=C1c2sc(-c3nc(Nc4cc5c(cc4C4CC4)CN(CCOC(F)(F)F)CC5)ncc3C(F)(F)F)cc2S(=O)(=O)CCN1C1CC1 [Example 314, 4-cyclopropyl-7-(2-((7-cyclopropyl-2-(2-(trifluoromethoxy)ethyl)-1,2,3,4-tetrahydroisoquinolin-6-yl)amino)-5-(trifluoromethyl)pyrimidin-4-yl)-3,4-dihydrothieno[2,3-f][1,4]thiazepin-5(2H)-one 1,1-dioxide] as the molecule, how does the IC50 read?
**A.** The IC50 was 10 to 50 nM.

**Q.** How did the IC50 turn out when C[C@@H]1CN(c2ccc(Nc3ncc(C(F)(F)F)c(-c4cc5c(s4)C(=O)N(C4COC4)CCS5(=O)=O)n3)c(C3CC3)c2)CCN1 [Example 315, (R)-7-(2-((2-cyclopropyl-4-(3-methylpiperazin-1-yl)phenyl)amino)-5-(trifluoromethyl)pyrimidin-4-yl)-4-(oxetan-3-yl)-3,4-dihydrothieno[2,3-f][1,4]thiazepin-5(2H)-one 1,1-dioxide] was run?
**A.** Its IC50 is no more than 5 nM.

**Q.** For C[C@@H]1CN(c2ccc(Nc3ncc(C(F)(F)F)c(-c4cc5c(s4)C(=O)N(C4COC4)CCS5(=O)=O)n3)c(C3CC3)c2)CCN1C [Example 316, (R)-7-(2-((2-cyclopropyl-4-(3,4-dimethylpiperazin-1-yl)phenyl)amino)-5-(trifluoromethyl)pyrimidin-4-yl)-4-(oxetan-3-yl)-3,4-dihydrothieno[2,3-f][1,4]thiazepin-5(2H)-one 1,1-dioxide], which IC50 is on record?
**A.** Its IC50 is no more than 5 nM.

**Q.** CN1C[C@@H]2C[C@H]1CN2c1ccc(Nc2ncc(C(F)(F)F)c(-c3cc4c(s3)C(=O)N(C3COC3)CCS4(=O)=O)n2)c(C2CC2)c1 [Example 317, 7-(2-((2-cyclopropyl-4-((1S,4S)-5-methyl-2,5-diazabicyclo[2.2.1]heptan-2-yl)phenyl)amino)-5-(trifluoromethyl)pyrimidin-4-yl)-4-(oxetan-3-yl)-3,4-dihydrothieno[2,3-f][1,4]thiazepin-5(2H)-one 1,1-dioxide] was tested. Which IC50 did it give?
**A.** Its IC50 is no more than 5 nM.

**Q.** O=C1c2sc(-c3nc(Nc4ccc(N5C[C@H]6CC[C@@H](C5)N6)cc4C4CC4)ncc3C(F)(F)F)cc2S(=O)(=O)CCN1C1COC1 [Example 318, 7-(2-((4-((1R,5S)-3,8-diazabicyclo[3.2.1]octan-3-yl)-2-cyclopropylphenyl)amino)-5-(trifluoromethyl)pyrimidin-4-yl)-4-(oxetan-3-yl)-3,4-dihydrothieno[2,3-f][1,4]thiazepin-5(2H)-one 1,1-dioxide] was tested. Which IC50 did it give?
**A.** The IC50 was no more than 5 nM.

**Q.** How did the IC50 turn out when CCc1cc(N2C[C@@H]3C[C@H]2CN3)ccc1Nc1ncc(C(F)(F)F)c(-c2cc3c(s2)C(=O)N(C2CC2)CCS3(=O)=O)n1 [Example 319, 7-(2-((4-((1S,4S)-2,5-diazabicyclo[2.2.1]heptan-2-yl)-2-ethylphenyl)amino)-5-(trifluoromethyl)pyrimidin-4-yl)-4-cyclopropyl-3,4-dihydrothieno[2,3-f][1,4]thiazepin-5(2H)-one 1,1-dioxide] was run?
**A.** Its IC50 is no more than 5 nM.

**Q.** Which IC50 does the source give for CN1[C@@H]2CC[C@H]1CN(c1ccc(Nc3ncc(C(F)(F)F)c(-c4cc5c(s4)C(=O)N(C4COC4)CCS5(=O)=O)n3)c(C3CC3)c1)C2 [Example 320, 7-(2-((2-cyclopropyl-4-((1R,5S)-8-methyl-3,8-diazabicyclo[3.2.1]octan-3-yl)phenyl)amino)-5-(trifluoromethyl)pyrimidin-4-yl)-4-(oxetan-3-yl)-3,4-dihydrothieno[2,3-f][1,4]thiazepin-5(2H)-one 1,1-dioxide] here?
**A.** The IC50 was no more than 5 nM.

**Q.** With CCc1cc(N2C[C@@H]3C[C@H]2CN3C)ccc1Nc1ncc(C(F)(F)F)c(-c2cc3c(s2)C(=O)N(C2CC2)CCS3(=O)=O)n1 [Example 321, 4-cyclopropyl-7-(2-((2-ethyl-4-((1S,4S)-5-methyl-2,5-diazabicyclo[2.2.1]heptan-2-yl)phenyl)amino)-5-(trifluoromethyl)pyrimidin-4-yl)-3,4-dihydrothieno[2,3-f][1,4]thiazepin-5(2H)-one 1,1-dioxide] as the molecule, how does the IC50 read?
**A.** The IC50 was no more than 5 nM.

**Q.** Which IC50 does the source give for CCc1cc(N2C[C@H]3C[C@@H]2CN3)ccc1Nc1ncc(C(F)(F)F)c(-c2cc3c(s2)C(=O)N(C2CC2)CCS3(=O)=O)n1 [Example 322, 7-(2-((4-((1R,4R)-2,5-diazabicyclo[2.2.1]heptan-2-yl)-2-ethylphenyl)amino)-5-(trifluoromethyl)pyrimidin-4-yl)-4-cyclopropyl-3,4-dihydrothieno[2,3-f][1,4]thiazepin-5(2H)-one 1,1-dioxide] here?
**A.** The IC50 was no more than 5 nM.

**Q.** With CCc1cc(N2C[C@H]3C[C@@H]2CN3C)ccc1Nc1ncc(C(F)(F)F)c(-c2cc3c(s2)C(=O)N(C2CC2)CCS3(=O)=O)n1 [Example 323, 4-cyclopropyl-7-(2-((2-ethyl-4-((1R,4R)-5-methyl-2,5-diazabicyclo[2.2.1]heptan-2-yl)phenyl)amino)-5-(trifluoromethyl)pyrimidin-4-yl)-3,4-dihydrothieno[2,3-f][1,4]thiazepin-5(2H)-one 1,1-dioxide] as the molecule, how does the IC50 read?
**A.** Its IC50 is no more than 5 nM.
